Results: PMC8480901 (PLoS ONE, 2021)
Where “and” joins values, the source holds several entries; their conditions need not be identical. Identical values can stand only once.

Key:
[1] = tested on: TNF-α, IL-6, IL-1β, GM-CSF, CXCL-1, CXCL-2, CCL-2 and MMP-9 in lung tissue; assay: LPS-induced cytokines, chemokines and MMP-9 in mouse lung homogenates (Luminex, ELISA); settings: for CCL2 % reduction / CXCL1 % reduction / CXCL2 % reduction / GM-CSF % reduction / IL-1β % reduction / IL-6 % reduction / MMP9 % reduction / TNFα % reduction / CCL2 / CXCL1 / CXCL2 / GM-CSF / IL-1β / IL-6 / MMP9 / TNFα / CCL2 Mean / CXCL1, Mean / CXCL2, Mean / GM-CSF Mean / IL-1β Mean / IL-6 Mean / MMP9, Mean / TNFα Mean: lung homogenate, LPS; for CCL2 / CXCL1 / CXCL2 / GM-CSF / IL-1β / IL-6 / MMP9 / TNFα: individual animal, listed as Azi; for CCL2 Mean / CXCL1, Mean / CXCL2, Mean / GM-CSF Mean / IL-1β Mean / IL-6 Mean / MMP9, Mean / TNFα Mean: mean of 8
Experimental: To induce pulmonary neutrophilia, mice in the control group received intranasal (IN) 50 μL saline, and all other animals received 5 μg LPS/50 μL saline IN per mouse.
After bronchoalveolar lavage, lungs were removed, weighed, snap frozen, and stored at −80°C until analysis. To homogenize the tissue, the frozen lungs were thawed and placed in Precellys CK28 Hard Tissue tubes (BERTIN Instruments, Montigny-le-Bretonneux, France) in 1 mL PBS (Gibco, Life Technologies, Paisley, UK) supplemented with protease inhibitors (Halt™ Protease Inhibitor Cocktail [100×]; Thermo Fisher Scientific, Rockford, IL, USA). A Precellys homogenizer (BERTIN Instruments) was used, shaking at 6800 rpm for three 30-second pulses separated by 15-second pauses. After homogenization, samples were centrifuged at 18,000×g for 10 minutes at 4°C, and the supernatants were collected for analysis.
Concentrations of tumor necrosis factor (TNF)-α, IL-6, granulocyte-macrophage colony-stimulating factor (GM-CSF), chemokine (C-X-C motif) ligand (CXCL)-1, CXCL-2, and chemokine (C-C motif) ligand (CCL)-2 in mouse lung homogenates were analyzed with the Mouse Premixed Multi-Analyte Kit (R&D Systems, Minneapolis, MN, USA) per the manufacturer’s protocol and using a Luminex 200 System (Luminex Corporation, Austin, TX, USA). Cytokine and chemokine concentrations were determined from blank-corrected median fluorescence intensity of each sample via xPONENT® software (Luminex Corporation), interpolating from standard curves generated with a 5-parameter logistic curve-fit.
Mouse Total MMP (matrix metalloprotease)-9 and IL-1β/IL-1F2 DuoSet ELISA (enzyme-linked immunosorbent assay) kits (R&D Systems) were used to measure concentrations of MMP-9 and IL-1β, respectively, in lung homogenates per the manufacturer’s protocols. Absorbance at 450 nm was measured using the SpectraMax i3 (Molecular Devices, San Jose, CA, USA). Concentrations of MMP-9 and IL-1β in samples were determined by interpolation from standard curves.
Differences between treated versus vehicle groups were determined using the Mann-Whitney test and were considered statistically significant when P<0.05. Outliers in the analysis of cytokine and chemokine concentrations were identified using the Grubbs test. No criteria were set for inclusion/exclusion of animals during the experiment or data points during the analysis.

[2] = tested on: IL-8–activated human neutrophils; assay: Chemotaxis of IL-8–activated human neutrophils (transwell, CellTiter Glo); type: cell-based; settings: for Neutrophilic chemotaxis, RLU, Mean / Neutrophilic chemotaxis: % reduction / Neutrophilic chemotaxis, RLU, single replicates: IL-8; for Neutrophilic chemotaxis, RLU, single replicates: listed as Azi
Excerpt: Buffy coat (blood sample fraction comprising white blood cells and platelets) from whole blood was obtained from a healthy adult volunteer at the Croatian Institute of Transfusion Medicine (CITM; Zagreb, Croatia). The CITM ethics committee approved the blood collection process, and the volunteer provided written informed consent prior to blood collection. Neutrophils were isolated from the buffy coat, an aliquot of which was used for cell counting via hematologic analyzer (X500i; Sysmex). […] The diluted buffy coat was drawn into sterile 50-mL syringes and incubated for 30 minutes at RT. Following incubation, the upper layer of leukocyte-rich plasma (35 mL) was decanted into a new sterile 50-mL conical centrifuge tube, carefully layered onto 15 mL of Lymphoprep (Axis-Shield Diagnostics, Ltd., Dundee, UK) and centrifuged at 400×g (brake turned off) for 35 minutes at RT. The supernatant and mononuclear ring were discarded, and the pellet was resuspended in 10 mL of cold sterile MilliQ water. […] Resuspended neutrophils were counted via Sysmex X500i hematologic analyzer.
All test compounds were reconstituted in DMSO (Sigma-Aldrich Chemie GmbH) to 100-mM stock concentrations, taking into consideration and correcting for salt and purity. A 30-mM stock solution of reference compound Sch527123 (MedChemExpress, Monmouth Junction, NJ, USA) was diluted to 10 mM with DMSO.
DMSO was used as vehicle. […] The reference compound was tested at concentrations of 0.003, 0.01, 0.03, 0.1, 0.3, 1, 3, and 10 μM. All compounds were tested in triplicate, and the final DMSO concentration was 0.1% per well.
Test and reference compound working solutions were then added (20 μL/well) for a 10-fold dilution to final testing concentrations. Compounds and cells were mixed by gentle pipetting, and the plate was pre-incubated for 30 minutes at RT with gentle mixing by pipetting.
Negative control wells received 180 μL of migration medium alone. To all wells, 20 μL of compound working solutions or DMSO vehicle was added. Once pre-incubation of cells with compounds was complete, the transwell inserts were carefully placed on the receiver plate, with caution to avoid air bubble formation, which could prevent cell migration. To the upper wells, 75 μL of cell suspension (375,000 cells/well) was added, taking care not to tear the membrane with pipette tips.
After incubation, the number of cells that migrated to the lower wells was quantified by removing the Transwell insert and adding 200 μL of CellTiter Glo reagent (CellTiter-Glo Luminescent Cell Viability Assay, Promega, Madison, WI, USA) to each lower well to quantify the amount of adenosine triphosphate (ATP) present, signaling the presence of metabolically active cells. The plate was incubated for 10 minutes in the dark at RT, followed by transferring 150 μL of solution into wells of a white 96-well plate (Lumitrac 200; Greiner Bio-One International GmbH, Kremsmunster, Austria).
For the chemotaxis and cytotoxicity evaluations, average relative light unit values were calculated from all untreated vehicle samples and, for each sample, percentage of vehicle value was calculated. The tested compound was considered cytotoxic if reduction from untreated vehicle was ≥20%.

[3] = all doses (10, 30, 100 mg/kg SC)

## CC[C@H]1OC(=O)[C@H](C)[C@@H](O[C@H]2C[C@@](C)(OC)[C@@H](O)[C@H](C)O2)[C@H](C)[C@@H](O[C@@H]2O[C@H](C)C[C@H](N(C)C)[C@H]2O)[C@](C)(O)C[C@@H](C)CN(C)[C@H](C)[C@@H](O)[C@]1(C)O [Azithromycin]
[1]; 100 mg/kg SC
  TNF-α concentrations in lung homogenate: no significant effect
[1]; 10 and 30 mg/kg SC
  TNF-α concentrations in lung homogenate: significant reductions
[1]; [3]
  IL-1β concentrations in lung homogenate: reduced
  MMP-9 levels in lung homogenate: not as pronounced as with lefamulin
  chemokines and GM-CSF in lung homogenate: significant but not as pronounced
[1]; all doses tested (10, 30, 100 mg/kg SC), vs vehicle control
  IL-6 concentrations in lung homogenate: reduced to a lesser extent
[1]; lowest dose (10 mg/kg SC)
  IL-1β concentrations in lung homogenate: significant reduction
[1]; 10 mg/kg
  CCL2 % reduction: 36%
  CXCL1 % reduction: 44%
  CXCL2 % reduction: 41%
  GM-CSF % reduction: 44%
  IL-1β % reduction: 13%
  IL-6 % reduction: 51%
  MMP9 % reduction: 16%
  TNFα % reduction: 61%
  CCL2: 4556.27 pg/mL and 3263.22 pg/mL and 1456.64 pg/mL and 3309.90 pg/mL and 1430.47 pg/mL and 5875.00 pg/mL and 1417.32 pg/mL and 3315.08 pg/mL
  CXCL1: 8286.02 pg/mL and 7278.90 pg/mL and 5769.98 pg/mL and 6100.99 pg/mL and 6284.84 pg/mL and 12400.64 pg/mL and 5305.93 pg/mL and 5666.95 pg/mL
  CXCL2: 7643.01 pg/mL and 7085.07 pg/mL and 4631.04 pg/mL and 5712.04 pg/mL and 6677.58 pg/mL and 11079.57 pg/mL and 4412.48 pg/mL and 8631.64 pg/mL
  GM-CSF: 139.66 pg/mL and 134.35 pg/mL and 75.54 pg/mL and 114.95 pg/mL and 86.88 pg/mL and 293.40 pg/mL and 92.13 pg/mL and 119.35 pg/mL
  IL-1β: 8824 pg/mL and 7408 pg/mL and 8108 pg/mL and 9841 pg/mL and 7312 pg/mL and 9969 pg/mL and 10254 pg/mL and 14453 pg/mL
  IL-6: 703.95 pg/mL and 429.86 pg/mL and 475.85 pg/mL and 521.70 pg/mL and 613.04 pg/mL and 952.23 pg/mL and 337.40 pg/mL and 749.27 pg/mL
  MMP9: 2413 pg/mL and 1880 pg/mL and 2467 pg/mL and 2045 pg/mL and 2015 pg/mL and 1705 pg/mL and 1966 pg/mL
  TNFα: 468.82 pg/mL and 365.25 pg/mL and 396.22 pg/mL and 281.21 pg/mL and 385.93 pg/mL and 406.49 pg/mL and 646.25 pg/mL and 400.08 pg/mL
  CCL2 Mean: 3078 pg/mL
  CXCL1, Mean: 7137 pg/mL
  CXCL2, Mean: 6984 pg/mL
  GM-CSF Mean: 132 pg/mL
  IL-1β Mean: 9521 pg/mL
  IL-6 Mean: 598 pg/mL
  MMP9, Mean: 2113 pg/mL
  TNFα Mean: 419 pg/mL
[1]; 30 mg/kg
  CCL2 % reduction: 89%
  CXCL1 % reduction: 62%
  CXCL2 % reduction: 66%
  GM-CSF % reduction: 77%
  IL-1β % reduction: 12%
  IL-6 % reduction: 89%
  MMP9 % reduction: 27%
  TNFα % reduction: 77%
  CCL2: 1476.16 pg/mL and 999.58 pg/mL and 556.20 pg/mL and 527.89 pg/mL and 1875.36 pg/mL and 690.08 pg/mL and 698.62 pg/mL and 781.98 pg/mL
  CXCL1: 6439.29 pg/mL and 6623.20 pg/mL and 4431.51 pg/mL and 4192.30 pg/mL and 6910.31 pg/mL and 3755.15 pg/mL and 2835.10 pg/mL and 5401.78 pg/mL
  CXCL2: 7207.48 pg/mL and 4769.86 pg/mL and 3209.88 pg/mL and 2485.22 pg/mL and 5075.82 pg/mL and 2214.38 pg/mL and 1941.44 pg/mL and 6143.97 pg/mL
  GM-CSF: 74.67 pg/mL and 53.86 pg/mL and 46.96 pg/mL and 43.52 pg/mL and 113.19 pg/mL and 45.24 pg/mL and 48.68 pg/mL and 57.31 pg/mL
  IL-1β: 7544 pg/mL and 10213 pg/mL and 8353 pg/mL and 7459 pg/mL and 10985 pg/mL and 8847 pg/mL and 13576 pg/mL and 10376 pg/mL
  IL-6: 510.25 pg/mL and 452.87 pg/mL and 220.67 pg/mL and 149.74 pg/mL and 314.17 pg/mL and 173.48 pg/mL and 475.85 pg/mL
  MMP9: 1204 pg/mL and 2421 pg/mL and 1943 pg/mL and 1913 pg/mL and 2288 pg/mL and 1939 pg/mL and 1874 pg/mL and 1816 pg/mL
  TNFα: 463.76 pg/mL and 597.19 pg/mL and 177.73 pg/mL and 146.70 pg/mL and 109.09 pg/mL and 202.71 pg/mL and 129.48 pg/mL
  CCL2 Mean: 951 pg/mL
  CXCL1, Mean: 5074 pg/mL
  CXCL2, Mean: 4131 pg/mL
  GM-CSF Mean: 60 pg/mL
  IL-1β Mean: 9669 pg/mL
  IL-6 Mean: 306 pg/mL
  MMP9, Mean: 1925 pg/mL
  TNFα Mean: 245 pg/mL
[1]; 100 mg/kg
  CCL2 % reduction: 80%
  CXCL1 % reduction: 24%
  CXCL2 % reduction: 11%
  GM-CSF % reduction: 67%
  IL-1β % reduction: 12%
  IL-6 % reduction: 8%
  MMP9 % reduction: 24%
  TNFα % reduction: 36%
  CCL2: 3799.67 pg/mL and 664.18 pg/mL and 1172.90 pg/mL and 962.12 pg/mL and 765.59 pg/mL and 1437.03 pg/mL and 877.71 pg/mL and 698.62 pg/mL
  CXCL1: 20237.00 pg/mL and 6969.24 pg/mL and 8733.13 pg/mL and 8755.54 pg/mL and 6380.45 pg/mL and 8935.00 pg/mL and 8591.33 pg/mL and 8085.43 pg/mL
  CXCL2: 18077.64 pg/mL and 6817.72 pg/mL and 11394.66 pg/mL and 9108.54 pg/mL and 6682.24 pg/mL and 11221.65 pg/mL and 9678.57 pg/mL and 10364.59 pg/mL
  GM-CSF: 162.70 pg/mL and 67.71 pg/mL and 85.13 pg/mL and 72.93 pg/mL and 64.24 pg/mL and 90.38 pg/mL and 45.24 pg/mL
  IL-1β: 6686 pg/mL and 8985 pg/mL and 9690 pg/mL and 9020 pg/mL and 8022 pg/mL and 10797 pg/mL and 10826 pg/mL and 12960 pg/mL
  IL-6: 2378.14 pg/mL and 464.36 pg/mL and 635.80 pg/mL and 669.91 pg/mL and 567.42 pg/mL and 703.95 pg/mL and 884.75 pg/mL and 1176.18 pg/mL
  MMP9: 1836 pg/mL and 1554 pg/mL and 2200 pg/mL and 2220 pg/mL and 2073 pg/mL and 2366 pg/mL and 1528 pg/mL and 2063 pg/mL
  TNFα: 660.88 pg/mL and 1126.83 pg/mL and 249.05 pg/mL and 935.87 pg/mL and 855.56 pg/mL and 270.54 pg/mL and 656.01 pg/mL and 675.49 pg/mL
  CCL2 Mean: 1297 pg/mL
  CXCL1, Mean: 9586 pg/mL
  CXCL2, Mean: 10418 pg/mL
  GM-CSF Mean: 83 pg/mL
  IL-1β Mean: 9623 pg/mL
  IL-6 Mean: 935 pg/mL
  MMP9, Mean: 1980 pg/mL
  TNFα Mean: 679 pg/mL
[2]; 0.03 to 30 μM
  IL-8–induced chemotaxis of human neutrophils: no effect
[2]; 0.03 µM
  Neutrophilic chemotaxis, RLU, Mean: 121773 RLU
  Neutrophilic chemotaxis: % reduction: 10%
  Neutrophilic chemotaxis, RLU, single replicates: 113920 RLU and 126240 RLU
[2]; 0.1 µM
  Neutrophilic chemotaxis, RLU, Mean: 122140 RLU
  Neutrophilic chemotaxis: % reduction: 9%
  Neutrophilic chemotaxis, RLU, single replicates: 121960 RLU and 122320 RLU
[2]; 0.3 µM
  Neutrophilic chemotaxis, RLU, Mean: 131533 RLU
  Neutrophilic chemotaxis, RLU, single replicates: 126760 RLU and 132240 RLU and 135600 RLU
[2]; 1 µM
  Neutrophilic chemotaxis, RLU, Mean: 117320 RLU
  Neutrophilic chemotaxis: % reduction: 13%
  Neutrophilic chemotaxis, RLU, single replicates: 120320 RLU and 118720 RLU and 112920 RLU
[2]; 3 µM
  Neutrophilic chemotaxis, RLU, Mean: 121787 RLU
  Neutrophilic chemotaxis: % reduction: 9.51%
  Neutrophilic chemotaxis, RLU, single replicates: 127280 RLU and 119280 RLU and 118800 RLU
[2]; 10 µM
  Neutrophilic chemotaxis, RLU, Mean: 120227 RLU
  Neutrophilic chemotaxis: % reduction: 11%
  Neutrophilic chemotaxis, RLU, single replicates: 119960 RLU and 123240 RLU and 117480 RLU
[2]; 30 µM
  Neutrophilic chemotaxis, RLU, Mean: 136440 RLU
  Neutrophilic chemotaxis: % reduction: -3%
  Neutrophilic chemotaxis, RLU, single replicates: 143280 RLU and 148320 RLU and 117720 RLU
[2]; 100 µM
  Neutrophilic chemotaxis, RLU, Mean: 142040 RLU
  Neutrophilic chemotaxis: % reduction: -8%
  Neutrophilic chemotaxis, RLU, single replicates: 140160 RLU and 151960 RLU and 134000 RLU
